Assay results: patent US20020049139A1, “Herbicidal compositions containing DMSO” (priority 1997, published 2002)

Key:
hosta = experiment: Phytotoxicity of DMSO sprays on hosta; format: in vivo
Method: (§1) Phytotoxicity of DMSO sprays was evaluated on hosta, ferns and azaleas. In each instance, groups of 6 plants were sprayed with 1%, 2%, 5% or 10% aqueous DMSO.

ferns = experiment: Phytotoxicity of DMSO sprays on ferns; format: in vivo
Method: as §1

azaleas = experiment: Phytotoxicity of DMSO sprays on azaleas; format: in vivo, azalea
Method: as §1

cacao seedling = settings: aqueous solutions containing 40% or greater amounts of DMSO; cited from earlier work
sickle pod [1] = experiment: Greenhouse control of sickle pod by glyphosate with/without DMSO; format: in vivo
Method: Glyphosate (N-(phosphonomethyl) glycine), the active agent (41%) in Composition B and other similar non-selective herbicidal products for control of many annual and perennial grasses, broadleaf weeds, woody shrubs and trees was evaluated in greenhouse studies. The LD50 range for glyphosate in the commercial concentrate Composition B on sickle pod grown in the greenhouse was established at 0.06%, and […].
Data showing effectiveness for control of sickle pod at concentration 0.06% and 0.3% in carrier with 3% DMSO are shown below. The testing procedure used 12 sickle pod 3 inches high selected for uniformity in each treatment. The rating of injury to each plant was based on visual rating of herbicidal activity with +=10%, ++=25%, +++=50%, ++++−75% and dead plants=[…].

sickle pod [2] = experiment: as above; format: in vivo; remark: listed apart in the source

Row | SMILES | Effects (hosta; hosta sprayed with 2% aqueous DMSO) | Effects (hosta; hosta sprayed with 5% aqueous DMSO) | Effects (hosta; hosta sprayed with 10% aqueous DMSO) | Effects (ferns; ferns sprayed with 2% aqueous DMSO) | Effects (ferns; ferns sprayed with 5% aqueous DMSO) | Effects (ferns; ferns sprayed with 10% aqueous DMSO) | Effects (azaleas; azalea sprayed with 2% aqueous DMSO) | Effects (azaleas; azalea sprayed with 5% aqueous DMSO) | Effects (azaleas; azalea sprayed with 10% aqueous DMSO) | effect on cacao seedling (cacao seedling) | % control of sickle pod (sickle pod [1]; 0.03% glyphosate only, 12 days) [%] | % control of sickle pod (sickle pod [1]; 0.06% glyphosate only, 12 days) [%] | % control of sickle pod (sickle pod [1]; 0.06% glyphosate only, 20 days) [%] | % control of sickle pod (sickle pod [1]; 0.06% glyphosate only, 30 days) [%] | % control of sickle pod (sickle pod [1]; 0.06% glyphosate with 3% DMSO, 12 days) [%] | % control of sickle pod (sickle pod [1]; 0.06% glyphosate, 3% DMSO, 20 days) [%] | control of sickle pod over a 30 day interval with 3% DMSO versus glyphosate only (sickle pod [1]; 0.06% glyphosate, 3% DMSO, 30 day interval) | % control of sickle pod (sickle pod [1]; 0.06% glyphosate, 3% DMSO, 30 days) [%] | % control of sickle pod (sickle pod [2]; 0.03% glyphosate with 3% DMSO, 12 days) [%] | sickle pod control with 3% DMSO versus without DMSO (sickle pod [2]; glyphosate at 0.06% and 0.03%, 3% DMSO present)
1 | C[S+](C)[O-] [DMSO, Dimethylsulfoxide] | non-toxic | non-toxic | Margina burn | non-toxic | burn on fron tips | burn on fron tips | non-toxic | non-toxic | non-toxic | marginal necroses |  |  |  |  |  |  |  |  |  | 
2 | O=C(O)CNCP(=O)(O)O [glyphosate, N-(phosphonomethyl) glycine] |  |  |  |  |  |  |  |  |  |  | 54 | 51 | 43 | 85 | 90 | 85 | improved early and sustained control | 96 | 85 | significant improvement
